Measurements taken from patent publication US20020034725A1, “SENSITIZATION OF CELLS TO RADIATION AND AND CHEMOTHERAPY” (priority 1996, published 2002).

Key:
K-ras = test: Western blot of K-ras prenylation in SW480 and Panc-1 cells; assay type: cell-based, human; conditions: SW480 cells, 48 hours
Experimental: FIG. 17A is an image of a Western blot depicting inhibition by FTI-277 of K-ras prenylation in human SW480 colon carcinoma cells. SW480 cells were treated with the indicated concentrations of FTI-277 (μM) for 48 hours. Samples were harvested and cell lysates were analyzed by Western blotting using either a H-ras monoclonal antibody (top) or a K-ras monoclonal antibody (bottom). Arrows indicate unfarnesylated ras bands.
FIG. 18A is an image of a Western blot depicting the specific inhibition of K-ras prenylation by combined FTI-277 and GGTI-298 treatment. Log phase cultures of human pancreatic carcinoma cells (Panc-1) and colon carcinoma cells (SW480) were treated with 5 μM FTI and 8 μM GGTI 298 for 48 hours. Cell samples were then harvested and cell lysates were prepared for Western blot analysis using monoclonal antibodies to K-ras and nuclear lamin B. The electrophoretic mobility of the K-ras mutant in SW480 is slower than that of the mutant K-ras in Panc-1 cells.

3.7, 5R and REF-GG cells = test: Morphological alterations of ras transformed REF cells; assay type: cell-based, rat
Experimental: FIG. 11A is an image of 3.7 cells that were cultured in medium containing 2.5 μM FTI-277 (right) or DMSO (left) for 48 hours.
FIG. 11B is an image of REF-GG cells that were cultured in medium containing 5 μM FTI-277 (right) or DMSO (left) for 48 hours.

wild type c-H-ras = test: Western blot of ras farnesylation in untransformed REF and MR4 cells; assay type: cell-based, rat
Excerpt: The oncogene-transfected cells used in this study were all derived from early passage rat embryo fibroblast (REF) by transfection with the pEJ plasmid containing the H-ras gene isolated from the EJ bladder carcinoma. This vector was introduced by calcium phosphate DNA transfer into primary REF, either alone or together with the pMC29 vector containing v-myc. One clone containing both the introduced H-ras gene and the v-myc genes is 3.7 (McKenna et al., 1990, Cancer Res. 50:97-102). 4R and 5R cells were obtained as rare transformants after transfection with the pEJ plasmid alone (McKenna et al., 1993, supra). MR4 cells were immortalized by transfection with an expression vector comprising v-myc linked to a neomycin-resistant selectable marker (McKenna et al., 1991, Radiat. Res. 125:283-287). REF-GG cells were obtained by transforming REF cells with a chimeric H-ras(v12) in which the CAAX motif is CVLL. All cell lines were mycoplasma free.
(§1) Cells were lysed in culture dishes with 1 x reducing Laemmli sample buffer. Samples were boiled, sheared and clarified by centrifugation at 14,000 rpm in a microfuge before storage at −20° C. Samples containing equal amounts of protein were separated on a 12% SDS polyacrylamide gel and electrophoretically transferred to nitrocellulose membranes. Membranes were blocked for 1-2 hours in PBS containing 0.1% Tween-20 and 5% powdered milk before antibody addition. Membranes were probed with monoclonal pan-ras antibody AB-4 (Oncogene Science, Uniondale, N.Y.) at a concentration of 0.5 μg/ml, or with monoclonal H-ras antibody LA069 (1:5000 dilution; Quality Biotech, Camden, N.J.). Detection of protein was accomplished using the ECL chemiluminescence kit (Amersham, Arlington Heights, Ill.). Images were digitized using an Arcus II scanner, and figures were assembled using Adobe Photoshop 3.0.

[1] = test system: murine prostate tumor cells cultured from a metastic lung nodule; test: Surviving fraction at 2 Gray, murine prostate tumor cells; assay type: cell-based, mouse; conditions: 5 μM FTI-277
Experimental: FIG. 14C is a series of graphs depicting the effect of 5 μM FTI-277 and 2 Gray irradiation on murine prostate tumor cells cultured from a metastic lung nodule. Cells were referred at 24 hours following irradiation in order to dilute the concentration of the inhibitor to 0.5 μM. The surviving cell fraction was assessed as described in FIG. 14B. The correlation coefficient for linear regression analysis (r^2) was greater than 0.95 in all cases.

FTase = FTase (Homo sapiens, UniProt P49354+P49356); conditions: cited from earlier work
REF-GG cells = test: SF2 by limiting dilution analysis of clonogens; assay type: cell-based, rat; conditions: 5 μM FTI-277
Experimental: FIG. 14B comprises two graphs depicting clonogenic survival of REF-GG cells following treatment with GGTI-298 and irradiation. REF-GG cells were plated at 1 to 5 cells per well in microtiter plates in the absence (top panel) or presence (bottom panel) of 8 μM of the geranylgeranyltransferase inhibitor, GGTI-298. Cells were then irradiated with 2 Gray or were mock irradiated. Cells were re-fed after 24 hours with medium that contained no inhibitor, thus diluting the inhibitor to 0.8 μM. These cells were then incubated for two weeks prior to scoring for colony formation. The data are presented as the natural log of the fraction of negative wells. The surviving fraction at 2 Gray was determined from the differences in the slopes obtained by linear regression of analysis of irradiated and unirradiated cells. The surviving fraction at 2 Gray calculated for cells irradiated after GGTI-298 treatment was 0.64. Control cell surviving fraction after 2 Gray was 0.91. The correlation coefficient for linear regression analysis (r^2) was greater than 0.95 in all cases.
Cells were irradiated with the indicated doses of ionizing radiation and were treated with FTI-277 for 24 hours after irradiation (FIG. 14A). […] The shoulders of the survival curves were reduced as were the overall slopes of the survival curves. […]

H-ras = test: Western blot of ras farnesylation in mouse prostate tumor cells; assay type: cell-based; conditions: primary tumor cells or metastatic clone, 24 hours
Experimental: FIG. 13A is an image of a Western blot depicting the effects of FTI-277 on ras farnesylation in cultured cells derived from a primary and a metastatic tumor following 24 hours of treatment with the inhibitor at the indicated concentrations. Mouse prostate tumor cells transformed with H-ras^v12 and myc oncogenes were treated with the indicated doses (μM) of FTI-277. After 24 hours, samples were harvested for Western blot analysis using an anti-H-ras antibody. The upper band (arrow) corresponds to unfarnesylated H-ras. C denotes controls.
as §1, with “Images were digitized using an Arcus II scanner, and figures were assembled using Adobe Photoshop 3.0.” left out

Compound: COC(=O)[C@H](CCSC)NC(=O)c1ccc(NC[C@@H](N)CS)cc1-c1ccccc1 [FTI-277]
- concentration at which altered migration of K-ras became evident (K-ras): 30 µM
- cell morphology (3.7, 5R and REF-GG cells; H-ras transformed REF cells (3.7 cells 2.5 μM), 48 hours): partial reversion of transformation
- cell morphology (3.7, 5R and REF-GG cells; REF-GG cells, 5 μM): did not induce altered cell morphology
- migration of ras (wild type c-H-ras; MR4 cells, up to 10 μm, pan-ras antibody): no changes in the migration of ras
- H-ras farnesylation status (wild type c-H-ras; untransformed REF, doses of up to 30 μM): majority of the H-ras remained in the farnesylated form
- survival after 2 Gray irradiation [1]: 0.36
- FTase inhibition (FTase): inhibited Ftase activity
- SF2 (surviving fraction at 2 Gray) (REF-GG cells): 0.81
- H-ras farnesylation (H-ras): dose-dependent reduction of the farnesylated form
